Source: patent US10087191B2, “Piperidine derivative and preparation method and pharmaceutical use thereof” (Jiangsu Hengrui Medicine Co., Ltd., priority 2015, dated 2018)

How the values were obtained:
MCF7 cells = assay: Inhibition of the proliferation of MCF7 cells (Cell Titer-Glo); format: cell-based; conditions: Homo sapiens, MCF-7 cells, 72 hours, read-out: IC50 value of inhibition effect on the proliferation of MCF7 cells
Method: The object of this experiment was to determine the inhibition effect of the compounds on the proliferation activity of MCF7 cells, and the in vitro activity of the compounds was evaluated according to the IC50 value.
After incubation for 24 hours, the medium was removed, then 90 μl of the medium containing 2% FBS and 10 μl of the drug were added to each well, 10 μl of DMSO were added to the control group, and the blank group contained only 100 μl medium containing 2% FBS. The plate was gently shaken and incubated in a incubator at 37° C., 5% CO2. After 72 hours, 50 μl of mixed Cell Titer-Glo (Promega, Cat. No. G7571) were added to each well. The plate was shaken until the ingredients were well mixed, and placed at room temperature for 10 minutes, then the chemiluminescence signal value was determined.
The values of the chemiluminescence signals vs the logarithmic concentrations of the compounds were plotted using Graghpad Prism to obtain IC50 values.

[1] = Pharmacokinetics assay in BALB/C nude mice after intragastrical administration; format: in vivo; conditions: female, mouse, plasma, po, 3 mg/kg; for AUC: read-out: Area Under Curve AUC; for CL/F: read-out: Clearance CL/F (converted); for half-life: read-out: Half-Life t½ (converted); for MRT: read-out: Mean Residence Time MRT; for Cmax: read-out: Plasma Conc. Cmax
Method: BALB/C nude mice were used as test animals. The drug concentration in plasma at different time points was determined by LC/MS/MS after intragastrical administration of the compounds of Examples 10, 14, 20, 21, 57, 68, 71, 73, 74, 76 and 89 to BALB/C nude mice. The pharmacokinetic behavior of the compounds of the present invention was studied and evaluated in BALB/C nude mice.
Ninety-nine (99) female BALB/C nude mice were equally divided into 11 groups, which were purchased from SINO-BRITSH SIPPR/BK LAB. ANIMAL LTD., CO, with Certificate No.: SCXK (Shanghai) 2008-0016.
The appropriate amount of each test compound was weighed, and successively added with 9% PEG400+0.5% tween 80+0.5% PVP+90% aqueous solution of 0.5% CMC.
After an overnight fast, 99 female BALB/C nude mice were equally divided into 11 groups, and administered the test compounds intragastrically at an administration volume of 0.2 mL/10 g.
Blood (0.1 mL) was sampled (3 mice at each time point) at 0.5, 1.0, 2.0, 4.0, 6.0, 8.0, 11.0 and 24.0 hours after administration. The samples were stored in heparinized test tubes, and centrifuged for 10 minutes at 3,500 rpm to separate the blood plasma. The plasma samples were stored at −20° C. The plasma concentration of the test compounds in BALB/C nude mice after intragastrical administration was determined by LC/MS/MS.
Pharmacokinetic parameters of the compounds of Examples 10, 14, 20, 21, 57, 68, 71, 73, 74, 76 and 89 of the present invention are shown below.

estrogen receptor (ER) = estrogen receptor (ER) (Homo sapiens (Human), UniProt P03372); assay: Inhibition of the binding of estrogen (E) to estrogen receptor (ER), MCF-7/ERE-luciferase reporter cells; format: cell-based; conditions: MCF-7/ERE-luciferase cells, 0.1 nM estradiol, 24 hours; read-out: IC50 value of inhibition effect on the binding of E to ER
Method: The inhibition effect of the compounds on the binding of E to ER in vitro was tested by the following method.
The object of this experiment was to determine the inhibition effect of the compounds on the binding of E to ER, and the in vitro activity of the compounds was evaluated according to the IC50 value.
MCF-7/ERE-luciferase cells were inoculated into the MEM medium (hyclone, SH30024.01B) containing 10% charcoal stripped FBS (Moregate, FBSF), 1% sodium pyruvate (Sigma, Cat. No. S8636), 1% nonessential amino acids (Sigma, Cat. No. M7145) and 500 μg/ml G418 in a 96-well plate with a density of 30,000 cells/well, and the cells were incubated under the conditions of 37° C. and 5% CO2. […] After incubation for 24 hours, the medium was removed, then 0.1 nM estradiol (Sigma, Cat. No. E2758) and 10 μl of the drug diluted with the medium were added to each well, and the control group was added with DMSO. The plate was gently shaken and incubated in a incubator at 37° C., 5% CO2. After 24 hours, the cell culture medium was discarded.
The inhibition effect of the compounds of the present invention on the binding of E to ER was tested by the experiment described above.

estrogen receptor (ER), sequence (P03372 whole entry): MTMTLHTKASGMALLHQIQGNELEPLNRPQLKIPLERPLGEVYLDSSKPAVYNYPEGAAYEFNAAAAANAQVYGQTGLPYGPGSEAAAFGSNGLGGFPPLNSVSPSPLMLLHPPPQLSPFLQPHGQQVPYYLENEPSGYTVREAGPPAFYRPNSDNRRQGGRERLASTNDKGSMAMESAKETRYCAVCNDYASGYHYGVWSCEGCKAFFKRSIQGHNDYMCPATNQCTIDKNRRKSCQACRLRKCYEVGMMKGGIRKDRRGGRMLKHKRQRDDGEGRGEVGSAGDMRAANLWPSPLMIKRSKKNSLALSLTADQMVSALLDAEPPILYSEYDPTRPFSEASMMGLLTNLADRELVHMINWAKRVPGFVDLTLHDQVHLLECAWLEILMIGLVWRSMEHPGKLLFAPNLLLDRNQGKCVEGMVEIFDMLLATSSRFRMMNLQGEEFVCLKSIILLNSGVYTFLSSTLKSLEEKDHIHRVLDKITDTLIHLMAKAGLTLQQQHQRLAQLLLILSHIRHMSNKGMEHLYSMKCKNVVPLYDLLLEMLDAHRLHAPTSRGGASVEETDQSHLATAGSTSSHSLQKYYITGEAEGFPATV

SMILES | IC50 (MCF7 cells) | IC50 (estrogen receptor (ER)) | further results
Cc1ncc(-c2ccc3c(c2)CC(C)N(CC(C)(C)F)C3c2c(F)cc(/C=C/C(=O)O)cc2F)s1 [Example 10, (E)-3-(3,5-difluoro-4-((1S,3R/1R,3S)-2-(2-fluoro-2-methylpropyl)-3-methyl-6-(2-methylthiazol-5-yl)-1,2,3,4-tetrahydroisoquinolin-1-yl)phenyl)acrylic acid] | 0.49 nM | – | AUC [1]: 15400 ng·h/mL; CL/F [1]: 54 mL/min/kg; half-life [1]: 247 min; MRT [1]: 5.72 h; Cmax [1]: 2600 ng/mL
CCn1cc(-c2ccc3c(c2)CC(C)N(CC(C)(C)F)C3c2c(F)cc(/C=C/C(=O)O)cc2F)cn1 [Example 20, (E)-3-(4-((1S,3R/1R,3S)-6-(1-ethyl-1H-pyrazol-4-yl)-2-(2-fluoro-2-methylpropyl)-3-methyl-1,2,3,4-tetrahydroisoquinolin-1-yl)-3,5-difluorophenyl)acrylic acid] | 0.03 nM | – | AUC [1]: 13000 ng·h/mL; CL/F [1]: 63.8 mL/min/kg; half-life [1]: 196 min; MRT [1]: 4.07 h; Cmax [1]: 3290 ng/mL
CCn1cc(-c2ccc3c(c2)C[C@@H](C)N(CC(C)(C)F)[C@@H]3c2c(F)cc(/C=C/C(=O)O)cc2F)cn1 [Example 21, (E)-3-(4-((1S,3R)-6-(1-ethyl-1H-pyrazol-4-yl)-2-(2-fluoro-2-methylpropyl)-3-methyl-1,2,3,4-tetrahydroisoquinolin-1-yl)-3,5-difluorophenyl)acrylic acid] | 0.11 nM | – | AUC [1]: 10100 ng·h/mL; CL/F [1]: 82.7 mL/min/kg; half-life [1]: 151 min; MRT [1]: 2.71 h; Cmax [1]: 4300 ng/mL
CC1Cc2cc(NC(=O)OC(C)(C)C)ccc2C(c2c(F)cc(/C=C/C(=O)O)cc2F)N1CC(C)(C)F [Example 31, (E)-3-(4-((1S,3R/1R,3S)-6-((tert-butoxycarbonyl)amino)-2-(2-fluoro-2-methylpropyl)-3-methyl-1,2,3,4-tetrahydroisoquinolin-1-yl)-3,5-difluorophenyl)acrylic acid] | – | 84.1 nM | –
CC1Cc2cc(OCC#N)ccc2C(c2c(F)cc(/C=C/C(=O)O)cc2F)N1CC(C)(C)F [Example 33, (E)-3-(4-((1S,3R/1R,3S)-6-(cyanomethoxy)-2-(2-fluoro-2-methylpropyl)-3-methyl-1,2,3,4-tetrahydroisoquinolin-1-yl)-3,5-difluorophenyl)acrylic acid] | 7.78 nM | 37.7 nM | –
CC1Cc2cc(C3CC3)ccc2C(c2c(F)cc(/C=C/C(=O)O)cc2F)N1CC(C)(C)F [Example 34, (E)-3-(4-((1S,3R/1R,3S)-6-cyclopropyl-2-(2-fluoro-2-methylpropyl)-3-methyl-1,2,3,4-tetrahydroisoquinolin-1-yl)-3,5-difluorophenyl)acrylic acid] | – | 18.4 nM | –
CC1Cc2cc(OC3CCOCC3)ccc2C(c2c(F)cc(/C=C/C(=O)O)cc2F)N1CC(C)(C)F [Example 36, (E)-3-(3,5-difluoro-4-((1S,3R/1R,3S)-2-(2-fluoro-2-methylpropyl)-3-methyl-6-((tetrahydro-2H-pyran-4-yl)oxy)-1,2,3,4-tetrahydroisoquinolin-1-yl)phenyl)acrylic acid] | – | 24.9 nM | –
CC1Cc2cc(O[C@H]3CCOC3)ccc2C(c2c(F)cc(/C=C/C(=O)O)cc2F)N1CC(C)(C)F (stereo partly drawn) [Example 37, (E)-3-(3,5-difluoro-4-((1S,3R/1R,3S)-2-(2-fluoro-2-methylpropyl)-3-methyl-6-(((S)-tetrahydrofuran-3-yl)oxy)-1,2,3,4-tetrahydroisoquinolin-1-yl)phenyl)acrylic acid] | 4.79 nM | 13.7 nM | –
C[C@H]1Cc2cc3c(cc2[C@H](c2c(F)cc(/C=C/C(=O)O)cc2F)N1CC(C)(C)F)OCO3 [Example 72, (E)-3-(3,5-difluoro-4-((5R,7S)-6-(2-fluoro-2-methylpropyl)-7-methyl-5,6,7,8-tetrahydro-[1,3]dioxolo[4,5-g]isoquinolin-5-yl)phenyl)acrylic acid] | – | 40.9 nM | –
C[C@H]1Cc2c(ccc3[nH]ncc23)[C@H](c2c(F)cc(/C=C/C(=O)O)cc2F)N1CC(C)(C)F [Example 95, (E)-3-(3,5-difluoro-4-((6R,8S)-7-(2-fluoro-2-methylpropyl)-8-methyl-6,7,8,9-tetrahydro-3H-pyrazolo[4,3-f]isoquinolin-6-yl)phenyl)acrylic acid] | – | 29.8 nM | –
CCn1cc(-c2ccc3oc4c(c3c2)C[C@H](C)N(CC(C)(C)F)[C@H]4c2c(F)cc(/C=C/C(=O)O)cc2F)cn1 [Example 96, (E)-3-(4-((1S,3S)-6-(1-ethyl-1H-pyrazol-4-yl)-2-(2-fluoro-2-methylpropyl)-3-methyl-1,2,3,4-tetrahydrobenzofuro[2,3-c]pyridin-1-yl)-3,5-difluorophenyl)acrylic acid] | – | 31.2 nM | –

More lines, main results first:

IC50 (MCF7 cells) | IC50 (estrogen receptor (ER)) | SMILES | further results
1.34 nM | 4.42 nM | CC1CN(c2ccc3c(c2)CC(C)N(CC(C)(C)F)C3c2c(F)cc(/C=C/C(=O)O)cc2F)CCO1 [Example 38, (E)-3-(3,5-difluoro-4-((1S,3R/1R,3S)-2-(2-fluoro-2-methylpropyl)-3-methyl-6-(2-methylmorpholino)-1,2,3,4-tetrahydroisoquinolin-1-yl)phenyl)acrylic acid] | –
2.34 nM | 14.2 nM | CC1Cc2cc(N3CCN(C)C(=O)C3)ccc2C(c2c(F)cc(/C=C/C(=O)O)cc2F)N1CC(C)(C)F [Example 39, (E)-3-(3,5-difluoro-4-((1S,3R/1R,3S)-2-(2-fluoro-2-methylpropyl)-3-methyl-6-(4-methyl-3-oxopiperazin-1-yl)-1,2,3,4-tetrahydroisoquinolin-1-yl)phenyl)acrylic acid] | –
5 nM | 8.1 nM | CC1Cc2cc(N3Cc4ccncc4C3)ccc2C(c2c(F)cc(/C=C/C(=O)O)cc2F)N1CC(C)(C)F [Example 42, (E)-3-(3,5-difluoro-4-((1S,3R/1R,3S)-2-(2-fluoro-2-methylpropyl)-3-methyl-6-(1H-pyrrolo[3,4-c]pyridin-2(3H)-yl)-1,2,3,4-tetrahydroisoquinolin-1-yl)phenyl)acrylic acid] | –
– | 26 nM | CC(C)Cn1cc(-c2ccc3c(c2)CC(C)N(CC(C)(C)F)C3c2c(F)cc(/C=C/C(=O)O)cc2F)cn1 [Example 52, (E)-3-(3,5-difluoro-4-((1S,3R/1R,3S)-2-(2-fluoro-2-methylpropyl)-6-(1-isobutyl-1H-pyrazol-4-yl)-3-methyl-1,2,3,4-tetrahydroisoquinolin-1-yl)phenyl)acrylic acid] | –
– | 12.9 nM | CC1Cc2cc(C#N)ccc2C(c2c(F)cc(/C=C/C(=O)O)cc2F)N1CC(C)(C)F [Example 93, (E)-3-(4-((1S,3R/1R,3S)-6-cyano-2-(2-fluoro-2-methylpropyl)-3-methyl-1,2,3,4-tetrahydroisoquinolin-1-yl)-3,5-difluorophenyl)acrylic acid] | –
– | 77.5 nM | C[C@H]1Cc2cc(-c3ccc4cnccc4c3)ccc2[C@H](c2c(F)cc(/C=C/C(=O)O)cc2F)N1CC(C)(C)F [Example 99, (E)-3-(3,5-difluoro-4-((1R,3S)-2-(2-fluoro-2-methylpropyl)-3-methyl-1,2,3,4-tetrahydro-[6,6′-biisoquinolin]-1-yl)phenyl)acrylic acid] | –
